target: T1, endothelial lipase (EL) (Homo sapiens, UniProt Q9Y5X9); experiment: EL inhibition assay (endothelial lipase activity, fluorescent Bodipy phospholipid substrate); format: biochemical; details: 37° C., 90 minutes; enzyme from conditioned medium of recombinant cell lines (CHO, HEK293)
T1 construct: made in house; host or cells: recombinant CHO or HEK293 cell lines; concentrated conditioned medium used as enzyme solution
T1 sequence (Q9Y5X9 21-500): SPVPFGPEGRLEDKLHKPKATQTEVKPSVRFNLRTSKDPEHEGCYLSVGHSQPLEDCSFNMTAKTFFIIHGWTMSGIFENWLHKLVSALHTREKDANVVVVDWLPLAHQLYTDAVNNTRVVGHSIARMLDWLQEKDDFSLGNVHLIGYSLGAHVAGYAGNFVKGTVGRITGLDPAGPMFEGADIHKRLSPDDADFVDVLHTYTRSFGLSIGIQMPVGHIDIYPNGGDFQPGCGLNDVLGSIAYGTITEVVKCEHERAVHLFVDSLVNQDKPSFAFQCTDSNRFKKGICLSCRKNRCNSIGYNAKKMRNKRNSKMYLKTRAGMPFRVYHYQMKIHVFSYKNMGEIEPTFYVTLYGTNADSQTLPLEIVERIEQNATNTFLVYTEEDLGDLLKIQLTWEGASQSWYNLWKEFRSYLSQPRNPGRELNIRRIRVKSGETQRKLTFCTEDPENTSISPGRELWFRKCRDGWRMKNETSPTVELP
Description: The activity of the compounds of the invention of the formula I was tested in the following enzyme assay system: […]
EL is released as secretory protein in high concentration into cell culture medium (conditioned medium) by recombinant cell lines (CHO, HEK293). This is employed as enzyme solution after concentration.
The phospholipase-specific substrate 1,2-bis(4,4-difluoro-5,7-dimethyl-4-bora-3a,4a-diaza-s-indacene-3-undecanoyl)-sn-glycero-3-phosphocholine, (manufacturer Molecular Probes) is used to characterize the enzymatic activity of endothelial lipase and the effect of inhibitors. Hydrolysis of the A1 ester linkage of this phospholipid by the enzyme liberates a fatty acid labeled by the fluorescent dye Bodipy which can be detected after separation by thin-layer chromatography on an HPTLC plate (silica gel 60, Merck) or directly in the reaction vessel by measuring the fluorescence.
The substrate solution is prepared by dissolving 100 μg of 1,2-bis(4,4-difluoro-5,7-dimethyl-4-bora-3a,4a-diaza-s-indacene-3-undecanoyl)-sn-glycero-3-phosphocholine (manufacturer Molecular Probes) in 100 μl DMSO and taking it up in 2.4 mg of tripalmitin (Sigma) in 393 μl chloroform which contains 20 mg/ml DOP-choline (1,2-dioleoyl-sn-glycero-3-phosphocholine). 39.3 μl of this lipid mixture are transferred into a fresh reaction vessel and the solvent is evaporated. The lipid mixture is dissolved in 4 ml of 200 mM TRIS-HCl, 150 mM sodium chloride, pH=7.4, by sonication twice. The subsequent enzymic reaction takes place at 37° C. for 90 minutes. For this purpose, 20 μl of the substrate solution are incubated with 2 μl of inhibitor of appropriate concentration (dissolved in 10% DMSO, 10% strength DMSO solution is used as control) and 2 μl of enzyme solution (conditioned medium). Then 4 μl of the assay mixture are loaded onto an HPTLC plate (silica gel 60, Merck), and the liberated fluorescent dye is separated for detection with an eluent (diethyl ether:petroleum benzine:acetic acid [78:22:1]). After evaporation of the eluent, the plate is read in a fluorescence scanner. An increased release of the fluorescent dye in the uninhibited reaction is to be observed as a measure of the enzymic activity.
The enzymatic activity is reduced as a function of the inhibitor concentration used, and the inhibitor concentration at which a half-maximum enzymic activity is observed is called IC50.

Row | Compound | IC50 [µM]
1 | Cc1ccc(CNC(=O)n2oc(=O)c(C(C)C)c2C)cc1C [Example 16] | 0.004
2 | Cc1c(C(C)C)c(=O)on1C(=O)NCc1cccs1 [Example 18] | 14.1
3 | Cc1ccc(CNC(=O)n2oc(=O)c3c2CCCC3)cc1C [Example 25] | 0.009
4 | Cc1ccc(CNC(=O)n2oc(=O)c3c2CCCC3)cc1 [Example 26] | 0.035
5 | Cc1cccc(C)c1CNC(=O)n1oc(=O)c2c1CCCC2 [Example 39] | 0.001
6 | Cc1cccc(CNC(=O)n2oc(=O)c3c2CCCC3)c1 [Example 40] | 0.053

Results, then the compound that gave them:

Row | IC50 [µM] | Compound
7 | 0.028 | Cc1ccccc1CNC(=O)n1oc(=O)c(C(C)C)c1C [Example 6]
8 | 0.9 | Cc1ccc(CNC(=O)n2oc(=O)c(C(C)C)c2C)cc1 [Example 7]
9 | 3.2 | Cc1c(C(C)C)c(=O)on1C(=O)NCc1cc2ccccc2s1 [Example 8]
10 | 0.06 | Cc1c(C(C)C)c(=O)on1C(=O)NC1CCc2ccccc21 (stereo not drawn) [Example 10]
11 | 0.1 | Cc1c(C)n(C(=O)NC2CCc3ccccc32)oc1=O (stereo not drawn) [Example 31]
12 | 0.5 | O=C(N[C@H]1CCc2ccccc21)n1oc(=O)cc1C1CC1 [Example 44]
